Read-outs that look alike come from different tables or passages of the source. Positions of bridges follow the written chain, without caps; N, C: chain ends. No end group written: not given here.
What was measured:
[1] = tested on: ICav1.2 in SAN myocytes from Cav1.3^−/− mice; test: ICaL, patch clamp, SAN myocytes from Cav1.3-/- mice; type: cell-based, mouse; conditions: for degree of inhibition of ICav1.2 / percentage of ICaL block: step 0 mV, mean ± SEM; for degree of inhibition of ICav1.2: n=6/N=2; for percentage of ICaL block: n=7/N=2; for L-type Ca2+ current density: Cas 1 µM alone or + Nife 3 µM, n=8
Method: Hearts from Wild-Type and Cav1.3^−/− mice were removed under general anesthesia consisting of 0.01 mg/g xylazine (2% Rompun; Bayer AG) and 0.1 mg/g ketamine (Imalgène;Merial) and immersed in a pre-warmed (36 °C) Tyrode solution containing (mM): 140 NaCl, 5.4 KCl, 1 MgCl2, 1.8 CaCl2, 5.5 D-glucose, and 5 Hepes (adjusted to pH 7.4 with NaOH). […] SAN tissue was excised and transferred into a low-Ca^2+ solution containing (mM): 140 NaCl, 5.4 KCl, 0.5 MgCl2, 0.2 CaCl2, 1.2 KH2PO4, 50 taurine, 5.5 D-glucose, 1 mg/mL BSA, and 5 Hepes–NaOH (adjusted to pH 6.9 with NaOH) for 5 min. Then, enzymatic digestion was carried out for 20-25 min at 36 °C in the low-Ca^2+ solution containing LiberaseTH Research Grade (0.15 mg/mL; Roche, Mannheim, Germany) and elastase (0.5 mg/mL; Worthington, Lakewood, NJ, USA). Digestion was stopped by washing the SAN in a “Kraftbrühe” (KB) medium containing (mM) 100 K-glutamate, 10 K-aspartate, 25 KCl, 10 KH2PO4, 2 MgSO4, 20 taurine, 5 creatine, 0.5 EGTA, 20 D-glucose, 5 Hepes, and 1 mg/mL BSA (adjusted to pH 7.2 with KOH). Single SAN cells were then dissociated from the SAN tissue by manual agitation using a flame-forged Pasteur’s pipette. To recover the automaticity of the SAN cells, Ca^2+ was gradually reintroduced in the cell’s storage solution to a final concentration of 1.8 mM. SAN cells were then left to rest for 1 h before recordings.
For patch-clamp recordings of SAN myocytes, cells were harvested in custom-made chambers with glass bottoms for cell attachment. Cells were then super-fused with Tyrode’s solution warmed at 36 °C before recording. Action potentials and ionic currents were recorded using an Axon multi-clamp patch-clamp 700B amplifier. Voltage-gated L-type Ca^2+ currents (ICaL) were recorded using standard whole cell patch-clamp configuration. For recording ICaL, we used an extracellular recording solution contained (mM): 135 tetraethylammonium chloride (TEA-Cl), 10 4-aminopyridine (4-AP), 1 MgCl2, 0.03 tetrodotoxin (TTX), 1 g/L Glucose, 2 CaCl2, 10 Hepes, (adjusted to pH = 7.2 with TEAOH). […] Pacemaker activity was recorded by the perforated patch-clamp technique using escin (40 µg/ml). For recording cell automaticity glass pipettes were filled with the intracellular solution contained (mM): 80 K-Aspartate, 50 KCl, 1 MgCl2, 5 HEPES, 2 CaCl2, 5 EGTA, 3 ATP-Na+ salt; pH was adjusted to 7.2 with KOH. Escin was dissolved in sterile H2O and added to the intracellular solution right before each experiment.
In all experiments of cellular electrophysiology, we employed synthetized analog of Cas, commercially available at Latoxan (ID: L8109). The native peptide was purified from the venom of Dendroaspis polylepis purchased from Latoxan, as previoulsly described. The pure peptide was obtained after gel filtration, cation exchange and C18 reversed phase chromatography. Its measured molecular mass (7036.26 Da average) was in accordance with the mass calculated from sequence data (7036.22 Da).

[2] = tested on: Cav1.2 (ICav1.2) in isolated adult mouse ventricular myocytes; type: cell-based

Sequence: RICYIHKASLPRATKTCVENTCYKMFIRTQREYISERGCGCPTAMWPYQTECCKGDRCNK (disulfide 3-22, 17-39, 41-52, 53-58 (inferred)) [Cas, calciseptine]
- degree of inhibition of ICav1.2 ([1]; Cas 300 nM, 0.2 Hz, holding −60 mV): 62 ± 6%
- degree of inhibition of ICav1.2 ([1]; Cas 300 nM, 1 Hz, holding −60 mV): 63 ± 6%
- degree of inhibition of ICav1.2 ([1]; Cas 300 nM, 5 Hz, holding −60 mV): 58 ± 8%
- voltage- or use-dependence of ICav1.2 inhibition ([1]; Cas 300 nM, holding −40 / −60 mV, 0.2, 1, 5 Hz): not voltage- or use-dependent
- percentage of ICaL block ([1]; Cas 300 nM, holding −40 mV): 68 ± 3%
- percentage of ICaL block ([1]; Cas 300 nM, holding −60 mV): 67 ± 4%
- L-type Ca2+ current density ([1]; 0 mV, Ctrl -4.14± 0.56): -0.45± 0.14 pA/pF
- L-type Ca2+ current density ([1]; +10 mV, Ctrl -4.69± 0.57): -0.17± 0.14 pA/pF
- L-type Ca2+ current density ([1]; +20 mV, Ctrl -3.93± 0.56): -0.13± 0.21 pA/pF
- L-type Ca2+ current density ([1]; +40 mV, Ctrl -1.15± 0.37): 0.37± 0.29 pA/pF
- L-type Ca2+ current density ([1]; -10 mV, Ctrl -2.49± 0.39): -0.17± 0.07 pA/pF
- L-type Ca2+ current density ([1]; -20 mV, Ctrl -1.16± 0.20): -0.08± 0.03 pA/pF
- L-type Ca2+ current density ([1]; -25 mV, Ctrl -0.97± 0.21): -0.25± 0.13 pA/pF
- block of ICaL ([1]; Cas 1 µM, holding −55 mV, n=8/N=2): totally blocked ICaL
- residual ICaL after Cas ([1]; Cav1.3^−/− SAN myocytes after Cas perfusion): No residual ICaL was recorded
- L-type Ca2+ current density ([2]; Cas 100 nM alone or + Nife 3 µM, +10 mV, Ctrl -9.81±1.32, n=9): -6.14±1.02 pA/pF
- L-type Ca2+ current density ([2]; Cas 100 nM alone or + Nife 3 µM, +20 mV, Ctrl -8.04±1.33, n=9): -5.17±0.93 pA/pF
- L-type Ca2+ current density ([2]; Cas 100 nM alone or + Nife 3 µM, +40 mV, Ctrl -3.68±0.68, n=9): -2.24±0.46 pA/pF
- L-type Ca2+ current density ([2]; Cas 100 nM alone or + Nife 3 µM, -10 mV, Ctrl -5.27±0.86, n=9): -3.45±0.54 pA/pF
- L-type Ca2+ current density ([2]; Cas 100 nM alone or + Nife 3 µM, -20 mV, Ctrl -1.26±0.27, n=9): -1.21±0.20 pA/pF
- reduction of ICav1.2 ([2]; Cas 100 nM, 300 nM, 1 µM, voltages −25 mV to +40 mV, holding −55 mV): dose-dependently reduced
- L-type Ca2+ current density ([2]; Cas 300 nM alone or + Nife 3 µM, 0 mV, Ctrl -10.51±1.51, n=7): -3.07±0.59 pA/pF
- L-type Ca2+ current density ([2]; Cas 300 nM alone or + Nife 3 µM, +10 mV, Ctrl -10.15±1.38, n=7): -3.66±0.55 pA/pF
- L-type Ca2+ current density ([2]; Cas 300 nM alone or + Nife 3 µM, +20 mV, Ctrl -8.09±1.11, n=7): -3.32±0.45 pA/pF
- L-type Ca2+ current density ([2]; Cas 300 nM alone or + Nife 3 µM, +40 mV, Ctrl -3.36±0.49, n=7): -1.58±0.23 pA/pF
- L-type Ca2+ current density ([2]; Cas 300 nM alone or + Nife 3 µM, -10 mV, Ctrl -6.58±1.29, n=7): -1.63±0.37 pA/pF
- L-type Ca2+ current density ([2]; Cas 300 nM alone or + Nife 3 µM, -20 mV, Ctrl -2.02±0.86, n=7): -0.52±0.07 pA/pF
- L-type Ca2+ current density ([2]; Cas 1 µM alone or + Nife 3 µM, 0 mV, Ctrl -9.85±1.04, n=6): -2.28±0.33 pA/pF
- L-type Ca2+ current density ([2]; Cas 1 µM alone or + Nife 3 µM, +10 mV, Ctrl -8.83±1,09, n=6): -3.38±0.15 pA/pF
- L-type Ca2+ current density ([2]; Cas 1 µM alone or + Nife 3 µM, +20 mV, Ctrl -6.41±0.90, n=6): -3.38±0.12 pA/pF
- L-type Ca2+ current density ([2]; Cas 1 µM alone or + Nife 3 µM, +40 mV, Ctrl -2.75±0.60, n=6): -1.35±0.11 pA/pF
- L-type Ca2+ current density ([2]; Cas 1 µM alone or + Nife 3 µM, -10 mV, Ctrl -7.71±0.98, n=6): -0.87±0.23 pA/pF
- L-type Ca2+ current density ([2]; Cas 1 µM alone or + Nife 3 µM, -20 mV, Ctrl -3.53±0.98, n=6): -0.34±0.07 pA/pF
